Test results taken from ChEMBL document CHEMBL1201862, “PubChem BioAssay data set” (2004).
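Results reflect a 48-hour exposure of cells in 96-well plates to compound at five concentrations. GI50: concentration for 50% inhibition of growth.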 Calls of active or inactive are those of the source. Rule as the data show it: active = GI50 up to about 1.1 µM and inactive = higher.

Experiments:
Test in all cases: growth of human tumour cells (NCI), 48 h
[1] = tested on: 786-0
[2] = tested on: A498
[3] = tested on: COLO 205
[4] = tested on: HCT-116
[5] = tested on: HCT-15
[6] = tested on: HOP-62
[7] = tested on: HOP-92
[8] = tested on: HT-29
[9] = tested on: MOLT-4
[10] = tested on: Malme-3M
[11] = tested on: NCI-H226
[12] = tested on: OVCAR-4
[13] = tested on: OVCAR-8
[14] = tested on: SF-268
[15] = tested on: SF-539
[16] = tested on: SK-MEL-28
[17] = tested on: SK-MEL-2
[18] = tested on: SW-620

Row | SMILES | GI50 [1] | GI50 [2] | GI50 [3] | GI50 [4] | GI50 [5] [µM] | GI50 [6] | GI50 [7] | GI50 [8] | GI50 [9] | GI50 [10] | GI50 [11] | GI50 [12] | GI50 [13] | GI50 [14] | GI50 [15] | GI50 [16] | GI50 [17] | GI50 [18]
1 | CC(C)c1c2[nH]c3ccccc3c2c(C(C)C)c2[nH]c3ccccc3c12 | > 52.5 µM (inactive) | > 100 µM (inactive) | 51.9 µM (inactive) | > 67.3 µM (inactive) | 16 | > 100 µM (inactive) | 22.4 µM (inactive) | 10.9 µM (inactive) | > 63.2 µM (inactive) | > 51.4 µM (inactive) | > 47.3 µM (inactive) | > 45.3 µM (inactive) | > 100 µM (inactive) | > 100 µM (inactive) | > 100 µM (inactive) | > 100 µM (inactive) | > 100 µM (inactive) | > 82 µM (inactive)
2 | CN(C)C(=O)c1ccc([N+](=O)[O-])cc1 | > 100 µM (inactive) | > 100 µM (inactive) | > 100 µM (inactive) | > 100 µM (inactive) | > 100 | > 100 µM (inactive) | > 100 µM (inactive) | > 100 µM (inactive) | > 100 µM (inactive) | > 100 µM (inactive) | > 100 µM (inactive) | > 100 µM (inactive) | > 100 µM (inactive) | > 100 µM (inactive) | > 100 µM (inactive) | > 100 µM (inactive) | > 100 µM (inactive) | > 100 µM (inactive)
3 | Nc1nc2c3c(ncn3CC(O)CO2)n1 (stereo unspecified) | > 100 µM (inactive) | > 100 µM (inactive) | > 100 µM (inactive) | > 100 µM (inactive) | > 100 | > 100 µM (inactive) | > 100 µM (inactive) | 7.6 µM (inactive) | > 100 µM (inactive) | > 100 µM (inactive) | > 100 µM (inactive) | > 100 µM (inactive) | > 100 µM (inactive) | > 100 µM (inactive) | > 100 µM (inactive) | > 100 µM (inactive) | > 100 µM (inactive) | > 100 µM (inactive)
4 | O=C(C[n+]1ccccc1)N/N=C(/CCC(=O)N(Cc1ccccc1)Cc1ccccc1)CC(=O)c1ccccc1 | > 100 µM (inactive) | > 100 µM (inactive) | > 100 µM (inactive) | > 100 µM (inactive) | > 100 | > 100 µM (inactive) | > 100 µM (inactive) | > 100 µM (inactive) | > 100 µM (inactive) | > 100 µM (inactive) | > 100 µM (inactive) | > 100 µM (inactive) | > 100 µM (inactive) | > 100 µM (inactive) | > 100 µM (inactive) | > 100 µM (inactive) | > 100 µM (inactive) | > 100 µM (inactive)
5 | CC12O[C@H](c3ccccc3)[C@H](c3ccccc3)N1C(=O)C1(C(=O)OCc3ccccc3)CC12 (stereo partly specified) | > 100 µM (inactive) | > 100 µM (inactive) | 89.9 µM (inactive) | 98.2 µM (inactive) | 86.5 | > 100 µM (inactive) | 23.5 µM (inactive) | 76 µM (inactive) | 18.2 µM (inactive) | > 100 µM (inactive) | 36 µM (inactive) | 79.1 µM (inactive) | 92.3 µM (inactive) | > 100 µM (inactive) |  |  | 33.3 µM (inactive) | > 100 µM (inactive)
6 | O=C(Nc1c(O)[nH]c(=S)[nH]c1=O)c1ccco1 | > 100 µM (inactive) | > 100 µM (inactive) | > 100 µM (inactive) | > 100 µM (inactive) | > 100 | > 100 µM (inactive) | 38.9 µM (inactive) | > 100 µM (inactive) | > 100 µM (inactive) | > 100 µM (inactive) | > 100 µM (inactive) | > 100 µM (inactive) | > 100 µM (inactive) | > 100 µM (inactive) | > 100 µM (inactive) | > 100 µM (inactive) | > 100 µM (inactive) | > 100 µM (inactive)
